Measured values as given in patent US20210317099A1, “SAFER, POTENT, AND FAST ACTING ANTIMICROBIAL AGENTS” (Purdue Research Foundation, priority 2020, published 2021).

Assays:
[1] = tested on: human colorectal adenocarcinoma (Caco-2) cell; assay: In vitro cytotoxicity, MTS assay; format: cell-based
Description: Compounds 144, 148, 151, 155, 158, and 187 were assayed (at concentrations of 16, 32, and 64 μg/mL) against a human colorectal adenocarcinoma (Caco-2) cell to determine the potential toxic effect to mammalian cells in vitro. Briefly, cells were cultured in Dulbecco's Modified Eagle Medium (DMEM) supplemented with 10% fetal bovine serum (FBS), non-essential amino acids (1×), penicillin-streptomycin at 37° C. in presence of 5% CO2. Control cells received DMSO alone at a concentration equal to that in drug-treated wells. The cells were incubated with the compounds (in triplicate) in a 96-well plate at 37° C. with 5% CO2 for two hours. This was followed by the subsequent addition of the assay reagent MTS 3-(4,5-dimethylthiazol-2-yl)-5-(3-carboxymethoxyphenyl)-2-(4-sulfophenyl)-2H-tetrazolium) (Promega, Madison, Wis., USA) and the plate was incubated for three to four hours. Absorbance readings (at OD490) were recorded using a kinetic microplate reader (Molecular Devices, Sunnyvale, Calif., USA). The quantity of viable cells after treatment with each compound was expressed as a percentage of the viability of DMSO-treated control cells (average of triplicate wells±standard deviation).
FIG. 3. Analyzing the toxicity of 144, 148, 151, 155, 158, and 187 compounds (tested in triplicates at 16, 32 and 64 μg/mL) against human colorectal cells (Caco-2) using the MTS 3-(4,5-dimethylthiazol-2-yl)-5-(3-carboxymethoxyphenyl)-2-(4-sulfophenyl)-2H-tetrazolium) assay. Results are presented as percent viable cells relative to DMSO (negative control) to determine a baseline measurement for the cytotoxic impact of each compound. The absorbance values represent an average of three samples analyzed for each compound. Error bars represent standard deviation values. The data were analyzed via a two-way ANOVA with post-hoc Dunnett's test for multiple comparisons. An asterisk (*) denotes statistical significance (P<0.05) between results for compounds and DMSO.

[2] = tested on: human keratinocytes cell line (HaCaT cells); assay: In vitro cytotoxicity, MTS assay; format: cell-based; settings: 2 h
Description: Compounds 144, 148, 149, 151, 155, and 158 were assayed (at concentrations of 16, 32, and 64 μg/mL) against a human keratinocytes cell line (HaCaT cells) to determine their in vitro potential toxic effect. Briefly, cells were cultured in Dulbecco's Modified Eagle Medium (DMEM) supplemented with 10% fetal bovine serum (FBS) and penicillin-streptomycin at 37° C. in presence of 5% CO2. Compounds were added in the first row of the 96-well plate. Control cells received DMSO alone at a concentration equivalent to that in drug-treated wells. The cells were incubated with the compounds (in triplicate) in a 96-well plate at 37° C. in presence of 5% CO2 for two hours. The assay reagent MTS 3-(4,5-dimethylthiazol-2-yl)-5-(3-carboxymethoxyphenyl)-2-(4-sulfophenyl)-2H-tetrazolium) (Promega, Madison, Wis., USA) was subsequently added and the plate was incubated for three to four hours. Absorbance readings (at OD490) were recorded using a kinetic microplate reader (Molecular Devices, Sunnyvale, Calif., USA). The quantity of viable cells after treatment with each compound was expressed as a percentage of the viability to DMSO-treated control cells (average of triplicate wells±standard deviation).
FIG. 2. Analyzing the toxicity of compounds 144, 148, 149, 151, 155 and 158 (tested in triplicates at 16, 32 and 64 μg/mL) against human keratinocytes cells (HaCaT) using the MTS 3-(4,5-dimethylthiazol-2-yl)-5-(3-carboxymethoxyphenyl)-2-(4-sulfophenyl)-2H-tetrazolium) assay. Results are presented as percent viable cells relative to DMSO (negative control to determine a baseline measurement for the cytotoxic impact of each compound). The absorbance values represent an average of three samples analyzed for each compound. Error bars represent standard deviation values. The data were analyzed via a two-way ANOVA with post-hoc Dunnett's test for multiple comparisons. An asterisk (*) denotes statistical significance (P<0.05) between results for compounds and DMSO.

SMILES	viable cells ([1]; Caco-2, at 32 μg/mL, relative to DMSO) [%]	non-toxic concentration to Caco-2 cells ([1]; Caco-2, two hours incubation, MTS) [µg/mL]	tolerable concentration as multiple of MIC against MRSA [2] [times]
C=C1C(=O)O[C@H](c2cccc3ccccc23)[C@@H]1c1ccc2ccccc2c1 [Compound 155]	100	≤ 32	–
C=C1C(=O)O[C@H](c2ccccc2)[C@@H]1c1cccc2ccccc12 [Compound 151]	–	–	16 to 32
